From publication PMC10459552, “Cardiomyocyte-Targeting Peptide to Deliver Amiodarone” (Pharmaceutics, 2023)
Counter-ions that a name gives are not always drawn.

How the values were obtained:
[1] = test system: guinea pig hearts; test: Optical mapping of voltage and Ca2+ in Langendorff-perfused hearts after daily intraperitoneal injection; details: same dosing; for AP and CaT durations compared to control hearts: recovery to 90% of baseline, Figure 4c, e
Description: At the end of the study, the GPs were euthanized, the hearts excised and perfused on a Langendorff apparatus with Tyrode’s solution containing (in mM): NaCl (130), KCl (4), MgSO4 (1.2), NaHCO3 (25), Glucose (5), CaCl2 (1.25), and Mannitol (45), and gassed with 95% O2 and 5% CO2, with a pH of 7.0, at 37 °C. The hearts were placed in a custom-designed chamber to subdue the motion artifacts, along with a 15 min blebbistatin (5 µM) in perfusate to minimize the contractions. Bolus injections of voltage (RH237, 25 µL of 2 mg/mL dimethyl sulfoxide (DMSO)) and Ca^2+-indicator dye (Rhod-2/AM, 200 µL of 2 mg/mL DMSO) were injected in the air trap above the aortic cannula. Fluorescence from the epicardium was collected with a camera lens, split with a 570 nm dichroic mirror and focused on two CMOS cameras (Sci-Media UltimaOne, Costa Mesa, CA, USA) capturing the fluorescence emission at 570–595 nm for the cytosolic Ca^2+ and 610–750 nm wavelengths for the voltage, as described in detail previously [33]. After resting sinus rhythm image acquisition, the hearts were paced at 250 ms with programmed stimulation to measure and compare the conduction velocity and transient duration (90%) of various treatment groups.
Adult male GPs (250–350 g) were injected intraperitoneally with amiodarone (80 mg/kg; n = 4) daily for 7 days, CTP–amio (26.3 mg/kg; n = 4) for 5 days, or CTP alone (17.8 mg/kg; n = 4) for 5 days and compared to vehicle-only injected GPs (n = 10). At the end of the injection period, the GPs were euthanized, and their hearts were excised and perfused in a Langendorf apparatus. The hearts were labeled with a voltage-sensitive dye (RH 237) and a Ca^2+ indicator (Rhod-2/AM) with a bolus injection in the perfusate in the air trap above the aortic cannula. Fluorescence images of the heart were focused on 2 CMOS cameras, one to detect voltage and the other intracellular free Ca^2+. The heart rate, action potentials (APs), and intracellular free-Ca^2+ transients (CaT) were measured from 10,000 pixels of the voltage and Ca^2+ CMOS cameras (Supplemental Figure S1). Durations of the APs and CaTs were calculated from the first derivative of the rise of the signals to their recovery to 90% of the baseline.

[2] = test system: guinea pig hearts (gene expression); test: RNA sequencing of treated hearts versus control hearts; format: in vivo; details: CTP-treated hearts versus controls
Description: Libraries were generated with the Illumina Stranded mRNA Library Prep kit (Illumina: 20040534, San Diego, CA, USA), according to the manufacturer’s instructions. RNA was assessed for quality using a Total RNA 15 nt kit (Agilent: DNF-471-33) on an Advanced Analytical 5300 Fragment Analyzer. The RNA concentration was quantified with a Qubit BR RNA assay kit (Invitrogen: Q10211) on a Qubit 4 (Invitrogen: Q33238). Briefly, 50 ng of input RNA was used for each sample. Following adapter ligation, 15 cycles of indexing PCR were completed, using IDT for Illumina RNA UD Indexes (Illumina: 20040553). Library assessment and quantification were performed using Qubit 1x HS DNA (Invitrogen: Q33231) on a Qubit 4 fluorometer and a HS NGS Fragment kit (Agilent: DNF-474-1000). […] The pooled library was loaded at 750 pM, and sequencing was carried out with read lengths of 2 × 101 bp, with an average of ~40 million reads per sample. […]
The raw RNA sequencing (RNA-Seq) paired-end reads for the guinea pig (GP) samples were processed through the Mayo RNA-Seq bioinformatics pipeline, RapMap version 1.0.0. Briefly, the raw reads were trimmed with a base quality cutoff of Phred score Q30 using Trimmomatic. […]
Using the gene-level counts from RapMap, genes differentially expressed between the control and treated groups were assessed using the bioinformatics package edgeR 2.6.2 [37]. […]

[3] = test system: mice; details: biodistribution studies; cited from earlier work
Source text: The ability of cationic or hydrophobic cell-penetrating peptides to transduce a wide variety of tissue types in vivo limits their clinical utility because of their lack of cell specificity, leading to a higher chance of off-target adverse side effects. Phage display using libraries of various lengths and various bacteriophage strains have been successfully utilized to identify tissue-specific penetrating peptides. In our prior work, we employed a combinatorial in vitro and in vivo M13 phage display methodology to identify a 12-amino-acid, synthetic, mildly bas ...

Molecule | heart rate during sinus rhythm compared to control hearts ([1]; Figure 4a) | conduction velocity (CV) of the APs and CaT compared to control hearts ([1]; Figure 4b, d) | calcium transients compared to the controls ([1]; Rhod-2/AM fluorescence) | AP and CaT durations compared to control hearts [1] | expression of α-adrenergic receptors [2] | expression of β-adrenergic receptors [2] | crossing of the blood–brain barrier [3] | route of excretion [3]
CCCCc1oc2ccccc2c1C(=O)c1cc(I)c(OCCN(CC)CC)c(I)c1 [amiodarone, Amiodarone hydrochloride] | significantly decreased | decreased | significantly decreased | increased |  |  |  | 
NH2-APWHLSSQYSRT-COOH (H-APWHLSSQYSRT-OH) [CTP] |  |  |  | decreased | upregulation | downregulation | does not cross | predominantly by a renal followed by a hepatobiliary mechanism
